Test results: patent US20250074943A1, “DLL3 BINDING PEPTIDES AND USES THEREOF” (AMGEN INC., priority 2021, published 2025)
Bridge positions count the residues as written; N and C are the ends. Peptide text beside a SMILES is read from it.

Target: T1, recombinant DLL3 ectodomain (rhDLL3-Fc) (Homo sapiens, UniProt Q9NYJ7)
T1 construct: The recombinant DLL3 ectodomain (rhDLL3-Fc) was biotinylated; Fc
T1 sequence (Q9NYJ7 27-492 limits assumed): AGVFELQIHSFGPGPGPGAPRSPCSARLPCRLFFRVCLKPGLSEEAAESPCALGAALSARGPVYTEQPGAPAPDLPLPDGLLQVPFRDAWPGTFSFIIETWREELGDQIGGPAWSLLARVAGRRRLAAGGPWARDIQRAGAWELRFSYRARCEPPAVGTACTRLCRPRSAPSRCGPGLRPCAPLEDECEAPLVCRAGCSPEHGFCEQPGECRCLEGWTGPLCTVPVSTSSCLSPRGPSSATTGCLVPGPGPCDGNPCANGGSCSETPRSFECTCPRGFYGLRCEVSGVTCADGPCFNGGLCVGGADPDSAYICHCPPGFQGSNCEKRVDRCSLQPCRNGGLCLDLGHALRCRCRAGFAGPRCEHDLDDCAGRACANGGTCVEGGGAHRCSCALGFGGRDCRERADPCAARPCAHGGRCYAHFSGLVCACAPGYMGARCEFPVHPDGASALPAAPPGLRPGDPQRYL
Assay: Binding kinetic assay using Bio-layer interferometry (BLI)
Conditions: for residence time: read-out: RT (residence time) (converted); for binding mode to DLL3: peptides at 20, 4 and 0.8 μM, fit to 1:1 Langmuir binding model
Description: Binding kinetic assays were performed using Bio-layer interferometry (BLI) technology. The recombinant DLL3 ectodomain (rhDLL3-Fc) was biotinylated using EZ-Link Sulfo-NHS-LC-LC-Biotin Kit according to the manufacturer's protocol (Pierce by Thermo Fisher Scientific). The recombinant protein was incubated with an excess of NHS-LC-LC Biotin ester, in a molar ratio of 1:3 (protein: biotin), at 25° C. for 90 min. The un-reacted biotin ester was removed by subsequent buffer exchange on 0.5 ml Zeba spin desalting columns 7K MWCO (Pierce by Thermo Fisher Scientific).

[1] = Table 4, ± values from three independent experiments

## CC(C)[C@H](NC(=O)[C@@H](NC(=O)[C@H](CCC(=O)O)NC(=O)[C@H](C)N)[C@@H](C)O)C(=O)N[C@@H](CCC(=O)O)C(=O)N[C@@H](Cc1ccccc1)C(=O)N[C@@H](CC(=O)O)C(=O)NCC(=O)N[C@H]1CSSC[C@@H](C(=O)N[C@@H](Cc2c[nH]c3ccccc23)C(=O)N[C@@H](Cc2c[nH]c3ccccc23)C(N)=O)NC(=O)[C@H]([C@@H](C)O)NC(=O)[C@H](Cc2c[nH]c3ccccc23)NC(=O)[C@H](CCC(=O)O)NC(=O)[C@H](Cc2ccc(O)cc2)NC(=O)[C@H](Cc2c[nH]c3ccccc23)NC(=O)[C@H](CC(=O)O)NC(=O)CNC(=O)[C@H](CCCCN)NC1=O [PepSP1164] (H-AETVEFDGCKGDWYEWTCWW-NH2; disulfide 9-18)
Table 4, global fitting 1:1 Langmuir, koff vs kon ratio, ± values from three independent experiments
  Kd: 125 nM
[1]
  residence time: 2.08 min
  binding mode to DLL3: dose-response saturable binding

## CC(C)[C@H](NC(=O)[C@@H]1CSSC[C@H](NC(=O)CNC(=O)[C@H](Cc2ccc(O)cc2)NC(=O)[C@H](Cc2ccccc2)NC(=O)[C@H](CCC(=O)O)NC(=O)[C@@H](NC(=O)[C@@H](NC(=O)[C@H](CCC(=O)O)NC(=O)[C@H](C)N)[C@@H](C)O)C(C)C)C(=O)N[C@@H](CCCNC(=N)N)C(=O)NCC(=O)NCC(=O)N[C@@H](CC(=O)O)C(=O)NCC(=O)N[C@@H](CCC(=O)O)C(=O)N[C@@H](Cc2c[nH]c3ccccc23)C(=O)N[C@@H]([C@@H](C)O)C(=O)N1)C(=O)N[C@@H](Cc1c[nH]c2ccccc12)C(N)=O [PepSP1165] (H-AETVEFYGCRGGDGEWTCVW-NH2; disulfide 9-18; N-terminus assumed)
[1]
  residence time: 1.1 min
  binding mode to DLL3: dose-response saturable binding

## CC(C)[C@H](NC(=O)[C@@H]1CSSC[C@H](NC(=O)[C@H](Cc2ccc(O)cc2)NC(=O)[C@H](CC(=O)O)NC(=O)[C@H](Cc2ccccc2)NC(=O)[C@H](CCC(=O)O)NC(=O)[C@@H](NC(=O)[C@@H](NC(=O)[C@H](CCC(=O)O)NC(=O)[C@H](C)N)[C@@H](C)O)C(C)C)C(=O)N[C@@H](Cc2ccc(O)cc2)C(=O)NCC(=O)N[C@@H](CC(=O)O)C(=O)N[C@@H](C(C)C)C(=O)N[C@@H](CCC(=O)O)C(=O)N[C@@H](CCC(=O)O)C(=O)N[C@@H](Cc2c[nH]c3ccccc23)C(=O)N[C@@H]([C@@H](C)O)C(=O)N1)C(=O)N[C@@H](Cc1ccc(O)cc1)C(N)=O [PepSP1166] (H-AETVEFDYCYGDVEEWTCVY-NH2; disulfide 9-18; N-terminus assumed)
[1]
  residence time: 0.8 min
  binding mode to DLL3: dose-response saturable binding

## CC(C)C[C@H](NC(=O)[C@@H]1CSSC[C@H](NC(=O)CNC(=O)[C@H](Cc2ccc(O)cc2)NC(=O)[C@H](Cc2ccccc2)NC(=O)[C@H](CCC(=O)O)NC(=O)[C@@H](NC(=O)[C@@H](NC(=O)[C@H](CCC(=O)O)NC(=O)[C@H](C)N)[C@@H](C)O)C(C)C)C(=O)N[C@@H](CCC(=O)O)C(=O)N[C@@H]([C@@H](C)O)C(=O)N[C@@H](Cc2ccc(O)cc2)C(=O)N[C@@H](CO)C(=O)NCC(=O)NCC(=O)N[C@@H](Cc2c[nH]c3ccccc23)C(=O)N[C@@H]([C@@H](C)O)C(=O)N1)C(=O)N[C@@H](Cc1c[nH]c2ccccc12)C(N)=O [PepSP1167] (H-AETVEFYGCETYSGGWTCLW-NH2; disulfide 9-18)
[1]
  residence time: 0.783 min
  binding mode to DLL3: dose-response saturable binding

## CC(C)[C@H](NC(=O)[C@@H](NC(=O)[C@H](CCC(=O)O)NC(=O)[C@H](C)N)[C@@H](C)O)C(=O)N[C@@H](CCC(=O)O)C(=O)N[C@@H](Cc1ccccc1)C(=O)N[C@@H](Cc1ccc(O)cc1)C(=O)NCC(=O)N[C@H]1CSSC[C@@H](C(=O)N[C@@H](C)C(=O)N[C@@H](Cc2c[nH]c3ccccc23)C(N)=O)NC(=O)[C@H]([C@@H](C)O)NC(=O)[C@H](Cc2c[nH]c3ccccc23)NC(=O)CNC(=O)[C@H](CCCCN)NC(=O)[C@H](Cc2c[nH]c3ccccc23)NC(=O)[C@H](CC(=O)O)NC(=O)[C@H](Cc2c[nH]c3ccccc23)NC(=O)[C@H](CCCCN)NC1=O [PepSP1168] (H-AETVEFYGCKWDWKGWTCAW-NH2; disulfide 9-18; N-terminus assumed)
[1]
  residence time: 0.733 min
  binding mode to DLL3: dose-response saturable binding

## CC(C)[C@@H]1NC(=O)[C@H](CO)NC(=O)[C@@H](NC(=O)CNC(=O)[C@H](Cc2ccc(O)cc2)NC(=O)[C@H](Cc2ccccc2)NC(=O)[C@H](CCC(=O)O)NC(=O)[C@@H](NC(=O)[C@@H](NC(=O)[C@H](CCC(=O)O)NC(=O)[C@H](C)N)[C@@H](C)O)C(C)C)CSSC[C@@H](C(=O)N[C@@H](CO)C(=O)N[C@@H](Cc2c[nH]c3ccccc23)C(N)=O)NC(=O)[C@H]([C@@H](C)O)NC(=O)[C@H](Cc2c[nH]c3ccccc23)NC(=O)CNC(=O)[C@H](CC(=O)O)NC(=O)[C@H](C)NC(=O)[C@H](CC(N)=O)NC1=O [PepSP1170] (H-AETVEFYGCSVNADGWTCSW-NH2; disulfide 9-18)
[1]
  residence time: 0.717 min
  binding mode to DLL3: dose-response saturable binding

## CC(C)C[C@H](NC(=O)[C@@H]1CSSC[C@H](NC(=O)CNC(=O)[C@H](Cc2ccc(O)cc2)NC(=O)[C@H](Cc2ccccc2)NC(=O)[C@H](CCC(=O)O)NC(=O)[C@@H](NC(=O)[C@@H](NC(=O)[C@H](CCC(=O)O)NC(=O)[C@H](C)N)[C@@H](C)O)C(C)C)C(=O)N[C@@H](Cc2ccc(O)cc2)C(=O)NCC(=O)N[C@@H](CCC(=O)O)C(=O)N[C@@H](CCC(N)=O)C(=O)N[C@@H](CCC(=O)O)C(=O)N[C@@H](CCC(N)=O)C(=O)N[C@@H](Cc2c[nH]c3ccccc23)C(=O)N[C@@H]([C@@H](C)O)C(=O)N1)C(=O)N[C@@H](Cc1c[nH]c2ccccc12)C(N)=O [PepSP1173] (H-AETVEFYGCYGEQEQWTCLW-NH2; disulfide 9-18)
[1]
  residence time: 1.68 min
  binding mode to DLL3: dose-response saturable binding

## CC(C)[C@H](NC(=O)[C@@H](NC(=O)[C@H](CCC(=O)O)NC(=O)[C@H](C)N)[C@@H](C)O)C(=O)N[C@@H](CCC(=O)O)C(=O)N[C@@H](Cc1ccccc1)C(=O)N[C@@H](Cc1ccc(O)cc1)C(=O)NCC(=O)N[C@H]1CSSC[C@@H](C(=O)N[C@@H](C)C(=O)N[C@@H](Cc2c[nH]c3ccccc23)C(N)=O)NC(=O)[C@H]([C@@H](C)O)NC(=O)[C@H](Cc2ccc(O)cc2)NC(=O)[C@H](CC(=O)O)NC(=O)[C@H](Cc2c[nH]c3ccccc23)NC(=O)CNC(=O)[C@H](Cc2ccc(O)cc2)NC(=O)[C@H](Cc2ccc(O)cc2)NC(=O)[C@H](CCC(N)=O)NC1=O [PepSP1176] (H-AETVEFYGCQYYGWDYTCAW-NH2; disulfide 9-18)
[1]
  residence time: 1.12 min
  binding mode to DLL3: dose-response saturable binding

## CC(C)[C@H](NC(=O)[C@@H](NC(=O)[C@H](CCC(=O)O)NC(=O)[C@H](C)N)[C@@H](C)O)C(=O)N[C@@H](CCC(=O)O)C(=O)N[C@@H](Cc1ccccc1)C(=O)N[C@@H](Cc1ccc(O)cc1)C(=O)NCC(=O)N[C@H]1CSSC[C@@H](C(=O)N[C@@H](CO)C(=O)N[C@@H](Cc2c[nH]c3ccccc23)C(N)=O)NC(=O)[C@H]([C@@H](C)O)NC(=O)[C@H](Cc2ccc(O)cc2)NC(=O)[C@H](CC(=O)O)NC(=O)[C@H](CC(N)=O)NC(=O)[C@H](Cc2ccc(O)cc2)NC(=O)[C@H](CC(N)=O)NC(=O)CNC(=O)[C@H](Cc2c[nH]c3ccccc23)NC1=O [PepSP1177] (H-AETVEFYGCWGNYNDYTCSW-NH2; disulfide 9-18; N-terminus assumed)
[1]
  residence time: 0.867 min
  binding mode to DLL3: dose-response saturable binding
